Experimental data taken from EP1135374B9, “BENZIMIDAZOLE COMPOUNDS THAT ARE VITRONECTIN RECEPTOR ANTAGONISTS” (SCHERING CORPORATION, priority 1998, dated 2000).

What was measured:
purified αllbβ3 receptor = purified αllbβ3 receptor (Homo sapiens, UniProt P05106+P08514); assay: similar competitive binding assay with 125I-echistatin on αllbβ3 receptor, used for the specificity index; conditions: specificity index IC50 αllbβ3/ IC50 αvβ3; for Specificity α11bβ3 / αvβ3: Table 13; for Specificity αIIβ3 / αvβ3: Table 14
Experimental: To measure the relative affinity of the test compounds for αvβ3 receptors versus affinity for αllbβ3 receptors, similar competitive assays were carried out using purified αllbβ3 receptor and ^125I-echistatin (iodinated using the lactoperoxidase method). The specificity index, which is a measure of the relative binding affinity for αvβ3, versus αllbβ3, may be determined by dividing the IC50 value for αllbβ3 by the IC50 value for αvβ3.

[1] = target: T1, αvβ3 receptor (purified from human placenta) (Homo sapiens, UniProt P05106+P06756); assay: competition radioligand binding assay, 125I-echistatin to αvβ3 receptor; conditions: αvβ3, inhibition of specific 125I-echistatin binding
T1 construct: αvβ3 receptor (purified from human placenta); from tissue; host or cells: human placenta
Experimental: The following assay procedure, which is a competition radioligand binding assay, was carried out to determine the activity of the foregoing compounds as αvβ3 antagonists. The competitive assay procedure described in Kumar, et. al., "Biochemical Characterization Of The Binding Of Echistatin To Integrin αvβ3 Receptor", Journal Of Pharmacology And Experimental Therapeutics, Vol. 283, No. 2, pp. 843-853 (1997) was employed. Thus, binding of ^125I-echistatin (radiolabeled by the chloramine-T method to a specific activity of 2000 Ci/mmol (Amersham, Chicago, Il.)) to αvβ3 receptor (purified from human placenta), both prepared as described in Kumar, et al., was competed by the compounds prepared in the foregoing examples. Purified αvβ3 receptor was coated onto Microlite-2 plates at a concentration of 50 ng/well. ^125I-echistatin was added to the wells to a final concentration of 0.05 nM in binding buffer (50 µl/well) in the presence of the competing test compound. The competing test compounds were employed at serially diluted concentrations ranging from 1 pM to 100 nM. After a 3 hour incubation at room temperature, the wells were washed, and radioactivity, reflecting binding by ^125 I-echistatin to αvβ3 receptors, was determined with Top Count (Packard). Each data point is an average of values from triplicate wells.
Specific binding of ^125I-echistatin was calculated as the difference between the amount of ^125I-echistatin bound in the absence (total binding) and the amount of ^125I-echistatin bound in the presence of a 200-fold molar excess of unlabeled echistatin (nonspecific binding). The efficacy of the test compounds for inhibiting specific binding of ^125I-echistatin to αvβ3 receptors was determined by plotting a graph of specific binding (y-axis) as a function of test compound concentration (x-axis). The concentration of test compound required to inhibit 50% of the specific binding (IC50) was determined from the plot. The IC50 may be directly converted mathematically to Ki, which is a measure of the receptor binding affinity of the compounds under the defined assay conditions.

With `CCOC(=O)CCNC(=O)N(Cc1ccc(C(=O)NC[C@H](NC(=O)OCc2ccccc2)C(=O)O)cc1)Cc1nc2ccccc2[nH]1` [Example 5-54] the “SPECIFICITY αIIbβ3 / αvβ3” value (purified αllbβ3 receptor; Table 10) was 413 and the IC50 ([1]; Table 10) was 2 nM.

`O=C(N[C@@H](CNC(=O)c1ccc(CN(Cc2nc3ccccc3[nH]2)C(=S)NC2CCCCC2)cc1)C(=O)O)OCc1ccccc1` [Example 5-55] was tested, and the “SPECIFICITY αIIbβ3 / αvβ3” value (purified αllbβ3 receptor; Table 10) was 620 and the IC50 ([1]; Table 10) was 2.5 nM.

`COCCNC(=S)N(Cc1ccc(C(=O)NC[C@H](NC(=O)OCc2ccccc2)C(=O)O)cc1)Cc1nc2ccccc2[nH]1` [Example 5-56] was tested, and the “SPECIFICITY αIIbβ3 / αvβ3” value (purified αllbβ3 receptor; Table 10) was 514 and the IC50 ([1]; Table 10) was 1.6 nM.

`O=C(N[C@H](CNC(=O)c1ccc(CNCc2nc3ccccc3[nH]2)cc1)C(=O)O)OCc1ccccc1` [Example 5-57] was tested, and the “Specificity αllbβ3 / αvβ3” value (purified αllbβ3 receptor; Table 11) was 1.43 and the IC50 ([1]; Table 11) was 1290 nM.

`COCC(=O)N(Cc1ccc(C(=O)NC[C@@H](NC(=O)OCc2ccccc2)C(=O)O)cc1)Cc1nc2ccccc2[nH]1` [Example 5-58] was tested, and the “Specificity αllbβ3 / αvβ3” value (purified αllbβ3 receptor; Table 11) was 46 and the IC50 ([1]; Table 11) was 118 nM.

With `O=C(N[C@H](CNC(=O)c1ccc(CN(Cc2nc3ccccc3[nH]2)C(=O)CCc2ccccc2)cc1)C(=O)O)OCc1ccccc1` [Example 5-59] the “Specificity αllbβ3 / αvβ3” value (purified αllbβ3 receptor; Table 11) was 65 and the IC50 ([1]; Table 11) was 129 nM.

For `CC(C)(C)OC(=O)N[C@@H](CNC(=O)c1ccc(CNCc2nc3ccccc3[nH]2)cc1)C(=O)O` [Example 5-60], the “Specificity αllbβ3 / αvβ3” value (purified αllbβ3 receptor; Table 12) was 90 and the IC50 ([1]; Table 12) was 25 nM.

For `CC(=O)N(Cc1ccc(C(=O)NC[C@H](NC(=O)OC(C)(C)C)C(=O)O)cc1)Cc1nc2ccccc2[nH]1` [Example 5-61], the “Specificity αllbβ3 / αvβ3” value (purified αllbβ3 receptor; Table 12) was 324 and the IC50 ([1]; Table 12) was 17 nM.

For `COCC(=O)N(Cc1ccc(C(=O)NC[C@H](NC(=O)OC(C)(C)C)C(=O)O)cc1)Cc1nc2ccccc2[nH]1` [Example 5-62], the “Specificity αllbβ3 / αvβ3” value (purified αllbβ3 receptor; Table 12) was 419 and the IC50 ([1]; Table 12) was 30 nM.

For `CC(C)(C)OC(=O)N[C@@H](CNC(=O)c1ccc(CN(Cc2nc3ccccc3[nH]2)C(=O)CCc2ccccc2)cc1)C(=O)O` [Example 5-63], the “Specificity αllbβ3 / αvβ3” value (purified αllbβ3 receptor; Table 12) was 293 and the IC50 ([1]; Table 12) was 20 nM.

`CC(C)(C)OC(=O)N[C@@H](CNC(=O)c1ccc(CN(Cc2nc3ccccc3[nH]2)C(=O)CCC2CCCC2)cc1)C(=O)O` [Example 5-64] was tested, and the “Specificity αllbβ3 / αvβ3” value (purified αllbβ3 receptor; Table 12) was 499 and the IC50 ([1]; Table 12) was 16 nM.

With `O=C(O)CC(NC(=O)c1ccc(CNCc2nc3ccccc3[nH]2)cc1)c1ccccc1` (stereo not drawn) [Example 5-65] the “Specificity α11bβ3 / αvβ3” value (purified αllbβ3 receptor) was 0.4 and the IC50 ([1]; Table 13) was 9230 nM.

In the case of `CC(=O)N(Cc1ccc(C(=O)NC(CC(=O)O)c2ccccc2)cc1)Cc1nc2ccccc2[nH]1` (stereo not drawn) [Example 5-66], the “Specificity α11bβ3 / αvβ3” value (purified αllbβ3 receptor) is reported as 0.4 and the IC50 ([1]; Table 13) is reported as 9470 nM.

`COCC(=O)N(Cc1ccc(C(=O)NC(CC(=O)O)c2ccccc2)cc1)Cc1nc2ccccc2[nH]1` (stereo not drawn) [Example 5-67] was tested, and the “Specificity α11bβ3 / αvβ3” value (purified αllbβ3 receptor) was 0.5 and the IC50 ([1]; Table 13) was 7370 nM.

For `O=C(O)CC(NC(=O)c1ccc(CN(Cc2nc3ccccc3[nH]2)C(=O)CCc2ccccc2)cc1)c1ccccc1` (stereo not drawn) [Example 5-68], the “Specificity α11bβ3 / αvβ3” value (purified αllbβ3 receptor) was 0.4 and the IC50 ([1]; Table 13) was 6630 nM.

In the case of `O=C(O)CC(NC(=O)c1ccc(CN(Cc2nc3ccccc3[nH]2)C(=O)CCC2CCCC2)cc1)c1ccccc1` (stereo not drawn) [Example 5-69], the “Specificity α11bβ3 / αvβ3” value (purified αllbβ3 receptor) is reported as 0.4 and the IC50 ([1]; Table 13) is reported as 10500 nM.

With `O=C(NC(CNC(=O)c1ccc(CNCCc2nc3ccccc3[nH]2)cc1)C(=O)O)OCc1ccccc1` (stereo not drawn) [Example 5-70] the “Specificity αIIβ3 / αvβ3” value (purified αllbβ3 receptor) was 0.2 and the IC50 ([1]; Table 14) was 413 nM.

`CC(=O)N(CCc1nc2ccccc2[nH]1)Cc1ccc(C(=O)NCC(NC(=O)OCc2ccccc2)C(=O)O)cc1` (stereo not drawn) [Example 5-71] was tested, and the “Specificity αIIβ3 / αvβ3” value (purified αllbβ3 receptor) was 0.3 and the IC50 ([1]; Table 14) was 266 nM.

With `COCC(=O)N(CCc1nc2ccccc2[nH]1)Cc1ccc(C(=O)NCC(NC(=O)OCc2ccccc2)C(=O)O)cc1` (stereo not drawn) [Example 5-72] the “Specificity αIIβ3 / αvβ3” value (purified αllbβ3 receptor) was 0.5 and the IC50 ([1]; Table 14) was 559 nM.

`O=C(NC(CNC(=O)c1ccc(CN(CCc2nc3ccccc3[nH]2)C(=O)CCc2ccccc2)cc1)C(=O)O)OCc1ccccc1` (stereo not drawn) [Example 5-73] was tested, and the “Specificity αIIβ3 / αvβ3” value (purified αllbβ3 receptor) was 0.7 and the IC50 ([1]; Table 14) was 170 nM.

`O=C(NC(CNC(=O)c1ccc(CN(CCc2nc3ccccc3[nH]2)C(=O)CCC2CCCC2)cc1)C(=O)O)OCc1ccccc1` (stereo not drawn) [Example 5-74] was tested, and the “Specificity αIIβ3 / αvβ3” value (purified αllbβ3 receptor) was 0.6 and the IC50 ([1]; Table 14) was 238 nM.

With `CC(NCc1ccc(C(=O)NC[C@H](NC(=O)OCc2ccccc2)C(=O)O)cc1)c1nc2ccccc2[nH]1` (stereo partly drawn) [Example 5-75] the “SPECIFICITY αIIbβ3 / αvβ3” value (purified αllbβ3 receptor; Table 15) was 10.2 and the IC50 ([1]; Table 15) was 306 nM.

In the case of `CC(=O)N(Cc1ccc(C(=O)NC[C@H](NC(=O)OCc2ccccc2)C(=O)O)cc1)C(C)c1nc2ccccc2[nH]1` (stereo partly drawn) [Example 5-76], the “SPECIFICITY αIIbβ3 / αvβ3” value (purified αllbβ3 receptor; Table 15) is reported as 6.7 and the IC50 ([1]; Table 15) is reported as 50 nM.

With `COCC(=O)N(Cc1ccc(C(=O)NC[C@H](NC(=O)OCc2ccccc2)C(=O)O)cc1)C(C)c1nc2ccccc2[nH]1` (stereo partly drawn) [Example 5-77] the “SPECIFICITY αIIbβ3 / αvβ3” value (purified αllbβ3 receptor; Table 15) was 12.4 and the IC50 ([1]; Table 15) was 49 nM.

In the case of `CC(c1nc2ccccc2[nH]1)N(Cc1ccc(C(=O)NC[C@H](NC(=O)OCc2ccccc2)C(=O)O)cc1)C(=O)CCc1ccccc1` (stereo partly drawn) [Example 5-78], the “SPECIFICITY αIIbβ3 / αvβ3” value (purified αllbβ3 receptor; Table 15) is reported as 33.9 and the IC50 ([1]; Table 15) is reported as 21 nM.

For `CC(c1nc2ccccc2[nH]1)N(Cc1ccc(C(=O)NC[C@H](NC(=O)OCc2ccccc2)C(=O)O)cc1)C(=O)CCC1CCCC1` (stereo partly drawn) [Example 5-79], the “SPECIFICITY αIIbβ3 / αvβ3” value (purified αllbβ3 receptor; Table 15) was 19.0 and the IC50 ([1]; Table 15) was 33 nM.

In the case of `COCC(=O)N(Cc1ccc(C(=O)NC[C@H](NS(=O)(=O)c2ccccc2)C(=O)O)cc1)Cc1nc2ccccc2[nH]1` [Example 5-80], the “Specificity αllbβ3 / αvβ3” value (purified αllbβ3 receptor; Table 16) is reported as 11 and the IC50 ([1]; Table 16) is reported as 4.4 nM.

`O=C(NC[C@H](NS(=O)(=O)c1ccccc1)C(=O)O)c1ccc(CN(Cc2nc3ccccc3[nH]2)C(=O)NC2CCCCC2)cc1` [Example 5-81] was tested, and the “Specificity αllbβ3 / αvβ3” value (purified αllbβ3 receptor; Table 16) was 8.0 and the IC50 ([1]; Table 16) was 8.2 nM.

With `CCCCOC(=O)N[C@@H](CNC(=O)c1ccc(CN(Cc2nc3ccccc3[nH]2)C(=O)NC2CCCCC2)cc1)C(=O)O` [Example 5-82] the “Specificity αllbβ3 / αvβ3” value (purified αllbβ3 receptor; Table 16) was 1259 and the IC50 ([1]; Table 16) was 2.2 nM.

With `CCCCOC(=O)N[C@@H](CNC(=O)c1ccc(CN(Cc2nc3ccccc3[nH]2)C(=O)Nc2ccccc2)cc1)C(=O)O` [Example 5-83] the “Specificity αllbβ3 / αvβ3” value (purified αllbβ3 receptor; Table 16) was 1689 and the IC50 ([1]; Table 16) was 1.8 nM.

In the case of `CCCCOC(=O)N[C@@H](CNC(=O)c1ccc(CN(Cc2nc3ccccc3[nH]2)C(=O)NC(C)C)cc1)C(=O)O` [Example 5-84], the “Specificity αllbβ3 / αvβ3” value (purified αllbβ3 receptor; Table 16) is reported as 712 and the IC50 ([1]; Table 16) is reported as 3.6 nM.

In the case of `CCCCOC(=O)N[C@@H](CNC(=O)c1ccc(CN(Cc2nc3ccccc3[nH]2)C(=O)NC(C)(C)C)cc1)C(=O)O` [Example 5-85], the “Specificity αllbβ3 / αvβ3” value (purified αllbβ3 receptor; Table 16) is reported as 1223 and the IC50 ([1]; Table 16) is reported as 1.8 nM.

For `CCCCOC(=O)N[C@@H](CNC(=O)c1ccc(CN(Cc2nc3ccccc3[nH]2)C(=O)NCC(=O)OCC)cc1)C(=O)O` [Example 5-86, N^3-[4-[(benzimidazol-2-yl)methyl][[(ethoxycarbonylmethyl)amino]-carbonyl]aminomethylbenzoyl]-N^2-(n-butoxycarbonyl)-L-2,3-diaminopropionic acid], the “Specificity αllbβ3 / αvβ3” value (purified αllbβ3 receptor; Table 16) was 793 and the IC50 ([1]; Table 16) was 3.3 nM.

`CCCCOC(=O)N[C@@H](CNC(=O)c1ccc(CN(Cc2nc3ccccc3[nH]2)C(=O)N[C@@H](CCSC)C(=O)OCC)cc1)C(=O)O` [Example 5-87] was tested, and the “Specificity αllbβ3 / αvβ3” value (purified αllbβ3 receptor; Table 16) was 1569 and the IC50 ([1]; Table 16) was 2 nM.

`CCCCOC(=O)N[C@@H](CNC(=O)c1ccc(CN(Cc2nc3ccccc3[nH]2)C(=O)Nc2ccc(F)cc2)cc1)C(=O)O` [Example 5-88] was tested, and the “Specificity αllbβ3 / αvβ3” value (purified αllbβ3 receptor; Table 16) was 1657 and the IC50 ([1]; Table 16) was 2 nM.

For `CCCCOC(=O)N[C@@H](CNC(=O)c1ccc(CN(Cc2nc3ccccc3[nH]2)C(=O)N[C@@H](C)C(=O)OCC)cc1)C(=O)O` [Example 5-89], the “Specificity αllbβ3 / αvβ3” value (purified αllbβ3 receptor; Table 16) was 1094 and the IC50 ([1]; Table 16) was 3.3 nM.
